# From patent US20020177625A1, “Class of glaucoma drugs to enhance aqueous humor outflow and lower intra-ocular pressure” (The Regents of the University of California, a California …, priority 2001, published 2002)
# Entries after “also recorded” stand apart in the source; their conditions may differ.
# Columns and labels:
# human TM cells [1] = experiment: Whole cell patch clamp ion conductances of human TM cells; type: cell-based
# Description: Further studies conducted with agents known to block Cl and K channels attenuate the swelling-activated regulatory volume decrease in TM cells and niflumic acid reduces both cell volume and intracellular [Cl] of TM cells. In these studies, human TM cells were cultured from donor eyes and used between passages three and eight. Routine whole cell patch clamp methods were used to assess conductances of TM cells in isotonic (290 mOsm) and hypotonic (230 mOsm) media, with or without NPPB, DIDS, TEA or niflumic acid. Conductances were determined from current/voltage plots, generated using a ramp protocol. […] The reversal potential observed in the presence of hypotonic medium was close to the calculated reversal potential for Cl. Switching to an external medium containing reduced Cl shifted the reversal potential toward that calculated for the low Cl medium. Treating the TM cells with the Cl channel blocker NPPB (100 μM) abolished the swelling-activated conductance in a manner reversed by subsequent washout of NPPB. […] Finally, treatment of the cells with the K channel blocker TEA (1 mM) also abolished the niflumic acid-activated TM cell conductance.
# Human TM and SC cells grown to subconfluence are gently trypsinized on the day of the experiment and immediately exposed to trypsin-neutralizing solution and then allowed to settle onto standard square (22×22-mm) glass coverslips for 30 minutes before use. Routine patch clamp methods were used as described previously Barakat, A. I., et al., Circulation Research, 85: 820-828, 1999; Hamill, O. P. et al., Pflügers Archives, 391: 85-100, 1981; Mauro, T. et al., J of Invest. Dermatology, 105: 203-208, 1995; Pappone, P. A. et al., J. of Physiology, 306:377-410, 1980; Pappone, P. A. et al., J of Gen. Physiology, 106: 231-258, 1995; Pappone, P. A. et al., Amer. J. of Physiology: Cell Physiology, 264: C1014-C1019, 1993; Wilson, S. M. et al., J. of Gen. Physiology, 113: 125-138, 1999. Using the whole cell patch clamp mode, conductances were assessed for isotonic and hypotonic media. By assessing current/voltage (I/V) relationships and reversal potentials for the TM and SC cells while using specific concentrations of Cl in the pipette and bath media, the nature of the conductances observed can be determined.
# Whole cell currents were measured at room temperature in a Warner recording/perfusion chamber (Warner Instrument Corp.) using standard whole-cell patch clamp techniques as described previously, Lucero, M. T. et al., J. of Gen. Physiology, 95:523-544, 1999. Thick-walled borosilicate capillaries (Sutter Instruments, Inc., Novato, Calif.) were used to manufacture pipettes with resistances of 3 to 5 MW. The voltage offset between the patch pipette and the bath solution were nulled immediately before patch formation. An agar bridge containing […] KCl was used to ground the bath solution. Voltages were recorded from a patch-clamp amplifier (AXOPATCH 200A, Axon Instruments). Data was collected on a Macintosh personal computer using Pulse+Pulsefit software (HEKA Elektronik). Whole-cell currents were recorded from single (sub confluent) cells with membrane capacitances nulled through the patch-clamp amplifier. The voltage ramp protocol included a voltage step from the holding potential to +60 mV for 40 ms followed by a ramp to −100 mV over a period of 400 ms followed by a return to the holding potential. During the protocol, voltage ramps were conducted once every 5 seconds for 10 minutes, yielding 120 traces. Conductances were computed by taking the derivative of a least-squares straight line fit to the I-V data plots using Igor Pro Software (Wavemetrics, Inc.). In cases in which the I-V plots are not linear over the entire voltage ramp (as in FIGS. 6AB), computation of the whole-cell conductance were restricted to a linear range, typically 0 to +60 mV. […]
# human TM cells [2] = experiment: Intracellular volume of human TM cells (14C-urea/14C-sucrose water space or COULTER COUNTER electronic cell sizing), isotonic medium; type: cell-based; details: human TM cells
# Description: The intracellular volume of human and bovine TM cells was evaluated by two methods: 1) radioisotopic evaluation of TM monolayer intracellular water space using ^14C-urea and ^14C-sucrose as markers of total and extracellular space, respectively; and 2) electronic cell sizing of suspended TM cells, using a COULTER COUNTER™ assay (Coulter Electronics, Ltd., Hialeah, Fla.). Details of these methods have been described previously by O'Donnell (O'Donnell, M. E., supra, 1993) the entirety of which is incorporated herein by reference.
# By the first method, cell monolayers were preequilibrated for 30 minutes in Hepes MEM at 37° C. in an air atmosphere, then incubated for 20 minutes in Hepes MEM containing 0 or 10 μM bumetamide, ethacrynic acid, or other agents to be tested, and finally incubated for 10 minutes in the same medium containing either ^14C-urea or ^14C-sucrose (both at 1 μCi/ml). Monolayers were then rinsed with isotonic ice-cold MgCl2 and radioactivity of SDS extracts determined by liquid scintillation. Specific activities (counts per minute/ml) of ^14C-urea and ^14C-sucrose in the assay medium were determined and used to calculate water space associated with trapped radioactivity (expressed as μl/mg protein. Intracellular volume was calculated as the difference between the water space determined for ^14C-urea (a marker for intracellular plus trapped extracellular space) and ^14C-sucrose (a marker for trapped extracellular space).
# By the second method, TM cells were trypsinized briefly in Ca-free medium, then rinsed with medium containing trypsin inhibitor and suspended in Hepes MEM. Mean cell volumes were then analyzed by electronic cell sizing on a COULTER COUNTER™ radioassay (Model ZM) with channelizer (C256), using at least 50,000 cells per data point and an orifice diameter of 140 μm. Aliquots of suspended cells were diluted into Hepes MEM containing the tonicity and/or agents to be evaluated. Mean cell volumes of each suspension aliquot were followed over time, starting at 1 minute after addition of cells to the assay media. Cell suspensions were maintained at 37° C. throughout the assay period. Absolute volumes (picoliters/cell) were calculated from distribution curves of cell diameter, using a standard curve generated by polystyrene latex beads of known diameter.
# Human TM cells were exposed to isotonic medium ±niflumic acid (10 or 100 μM)±10 μM bumetamide. Cell volume was assessed by COULTER COUNTER™ electronic cell sizing over the time course shown, using TM cells in suspension. Note that niflumic acid (NA) alone decreases volume of the TM cells and that exposing the cells to NA plus bumetamide causes a further decrease in TM cell volume. Data represent means of two experiments (all conditions shown tested in both experiments).
smiles,measurement,setting,value
O=C(O)c1cccnc1Nc1cccc(C(F)(F)F)c1 [niflumic acid],reversal potential of the niflumic acid-activated conductance,"human TM cells [1]; human TM cell, 100 μM niflumic acid, calculated reversal potentials Cl −22 mV, K −82 mV",very close to the Cl reversal potential; also recorded: quite close to the calculated reversal potential for Cl
same,"niflumic acid-activated conductance, dependence on bath ions","human TM cells [1]; human TM cells, niflumic acid 100 μM, K-free or Cl-free medium",abolished in K-free medium but not in Cl-free medium
same,ion conductance of TM cells,"human TM cells [1]; normal human TM cells, isotonic bath, niflumic acid 100 μM",activate an ion conductance; also recorded: rapid increase in conductance
same,TM cell volume in isotonic medium (resting volume),human TM cells [2]; niflumic acid 10 μM,decreased
same,TM cell volume in isotonic medium (resting volume),human TM cells [2]; niflumic acid 100 μM,decreased
